Data: patent publication US10280198B2, “Therapeutic agents for reducing parathyroid hormone levels” (KAI PHARMACEUTICALS, INC., priority 2009, dated 2019)
Like-named read-outs stand apart in the source and are kept apart here.

Experiments:
[1] = molecular target: T1, human calcium-sensing receptor (CaSR) (Homo sapiens, UniProt P41180); experiment: In vitro cell assay in HEK-293 expressing the human calcium-sensing receptor (IP1 production); format: cell-based
T1 construct: expressed in transfected cells; host or cells: HEK 293T cells, transiently transfected (lipofectamine 2000); in some cases HEK293 cells stably transfected
T1 sequence (P41180 20-1078): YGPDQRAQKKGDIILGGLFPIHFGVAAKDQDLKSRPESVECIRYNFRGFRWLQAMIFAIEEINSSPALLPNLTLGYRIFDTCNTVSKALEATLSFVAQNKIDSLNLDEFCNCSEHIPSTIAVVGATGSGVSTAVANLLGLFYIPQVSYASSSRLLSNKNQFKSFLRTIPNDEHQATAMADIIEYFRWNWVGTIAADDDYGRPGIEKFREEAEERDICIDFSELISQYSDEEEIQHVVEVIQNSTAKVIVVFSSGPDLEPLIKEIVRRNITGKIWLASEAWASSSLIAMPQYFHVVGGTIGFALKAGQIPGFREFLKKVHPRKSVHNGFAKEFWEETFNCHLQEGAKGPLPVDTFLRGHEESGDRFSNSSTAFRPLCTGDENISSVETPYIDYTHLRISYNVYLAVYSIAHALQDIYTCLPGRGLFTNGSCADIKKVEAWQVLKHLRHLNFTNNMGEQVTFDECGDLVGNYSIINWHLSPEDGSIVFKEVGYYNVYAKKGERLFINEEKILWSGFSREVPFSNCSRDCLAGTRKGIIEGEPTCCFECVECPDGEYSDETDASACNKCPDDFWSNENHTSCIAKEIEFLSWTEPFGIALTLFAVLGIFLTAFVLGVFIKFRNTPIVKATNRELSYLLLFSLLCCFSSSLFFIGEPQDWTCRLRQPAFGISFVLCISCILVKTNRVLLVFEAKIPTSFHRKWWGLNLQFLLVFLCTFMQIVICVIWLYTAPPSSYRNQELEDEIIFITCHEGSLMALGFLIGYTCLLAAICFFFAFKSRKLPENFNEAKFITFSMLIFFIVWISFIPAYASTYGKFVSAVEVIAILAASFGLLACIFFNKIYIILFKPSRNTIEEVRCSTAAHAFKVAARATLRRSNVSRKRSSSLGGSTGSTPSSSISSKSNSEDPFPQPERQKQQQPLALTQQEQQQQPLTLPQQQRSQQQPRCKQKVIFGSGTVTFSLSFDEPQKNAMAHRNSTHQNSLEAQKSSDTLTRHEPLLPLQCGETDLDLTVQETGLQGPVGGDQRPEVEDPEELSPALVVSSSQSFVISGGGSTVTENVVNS
Method in brief: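 HEK293 cells transfected with human CaSR exposed to peptides at eight concentrations in duplicate (top 1 mM or 300 μM, ½-log dilutions) at 37 °C for 1.5 h.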

[2] = system: rat peritoneal mast cells; experiment: In vitro histamine induction in rat peritoneal mast cells; format: cell-based
Method in brief: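 Mast cells from peritoneal lavage of Sprague Dawley rats were incubated with compound at 10 μM for 15 min at 37 °C in HBSS + 25 mM HEPES pH 7.4. Supernatant histamine measured by EIA; response expressed as fold change versus pre-incubation levels.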

[3] = Table 5, IP1 production in HEK293 cells expressing human CaSR, eight concentrations in duplicate, read-out: EC50 in CaSR in vitro assay

| Structure (SMILES) | EC50 [1, 3] [nM] | Histamine in vitro Fold change of non-treated at 10 uM [2] [fold] | EC50 ([1]; Table 1, IP1 in HEK293 cells expressing human CaSR, read-out: In vitro EC50) [nM] |
| --- | --- | --- | --- |
| CC(=O)N[C@H](CS)C(=O)N[C@H](C)C(=O)N[C@H](CCCNC(=N)N)C(=O)N[C@H](CCCNC(=N)N)C(=O)N[C@H](CCCNC(=N)N)C(=O)N[C@H](C)C(=O)N[C@H](CCCNC(=N)N)C(N)=O [SEQ ID NO: 26, Ac-carrrar-NH2] | 1600 | 1.4 | – |
| CC(=O)N[C@H](CS)C(=O)N[C@H](CCCNC(=N)N)C(=O)N[C@H](CCCNC(=N)N)C(=O)N[C@H](CCCNC(=N)N)C(=O)N[C@H](CCCNC(=N)N)C(=O)N[C@H](CCCNC(=N)N)C(=O)N[C@H](CCCNC(=N)N)C(N)=O [SEQ ID NO: 6, Ac-crrrrrr-NH2] | 500 | 11.5 | 500 |
